Test results as given in US20090088371A1, “COMBINATION THERAPY WITH SYK KINASE INHIBITOR” (Rigel Pharmaceuticals, Inc., priority 2007, published 2009).
“And” between values parts separate entries of the source, which are not always exact repeats. Equal values may be shown once. “Also recorded” adds a separate entry of the source.

How the values were obtained:
CD-1 mice = test: Antibody-mediated thrombocytopenia in CD-1 mice, platelet counts by flow cytometry (Examples 2 and 4, FIG. 2, Table 1); assay type: in vivo, mouse; conditions: for Individual Animal Platelet Count / Platelet Count Mean: 24 hours following anti-αIIb treatment; for Individual Animal Platelet Count: one value per animal; for Platelet Count Mean: n=6
Experimental: CD-1 mice, approximately 10 weeks of age, were obtained from Charles River (Montreal, PQ, Canada). All mice, with the exception of the naïve group, were injected with 2 μg rat anti-mouse GPIIb (also referred to as anti-integrin αIIb or anti-CD41) antibody (specific for GPIIb, clone MWReg30, rat IgG1, κ, PharMingen, Missassuaga, ON, Canada) in 200 μL PBS on Day 1. Platelets were enumerated on Day 2 (24 hours following injection of anti-platelet antibody).
During the 3 day experiment (Day O— Day 2), Compound I-treated mice were given the indicated doses of Compound 1 by oral gavage once on Day 0, twice on Day 1 and once on Day 2. Control animals were given an equal volume of vehicle. For the IVIg group, mice were injected intraperitoneally (IP) with 2 g/kg Gamunex IVIg (Bayer, Elkhart, Ill.) once on Day 0. Two concentrations of Compound 1 (3.08 and 4.94 mg/mL) were formulated with 0.1% CMC Na-0.1% Methylparaben-0.02% Propylparaben-H2O. One day prior to platelet depletion, treatment began. Mice were treated orally twice daily (bid.) with Compound 1 (30.8 or 49.4 mg/kg of body weight per dose, n=6) at a dose volume of 10 mL/kg. IVIg (2 g/kg) was used as a reference agent and was administered IP as described previously (Crow et al., 2003).
Two hours following the last treatment of Compound 1 on Day 2, all mice were bled via the saphenous vein; 50 μL of blood was collected into 450 μL PBS/1% EDTA. The blood was further diluted to a final dilution of 1/12,000 in PBS/1% EDTA. Platelets were enumerated by flow cytometry according to Crow et al., 2001. Briefly, the samples were acquired for 2 minutes on a flow-rate-calibrated FACScan flow cytometer (Becton-Dickinson, San Jose, Calif.), using forward scatter (FSC) versus side scatter (SSC) to gate platelets.
All values in the text and figures are expressed as mean±standard error of the mean (SEM) for n=6 mice/group unless noted otherwise, and n represents the number of mice. Differences between treatment and control groups were compared using the 2-tailed Student's t-test using GraphPad Prism Inc., software ver. 4.0 (San Diego, Calif., USA).
On Day 0, mice were pre-treated with nothing (Nil), 0.25 mL Vehicle twice (8 hrs apart) or the indicated doses of Compound 1 (in 0.25 mL vehicle) or 2 g/kg IVIg. On Day 1, the above treatments were repeated except for IVIg. All mice also received 2 μg anti-platelet antibody on Day 1. On Day 2, all mice were bled for platelet enumeration by flow cytometry as described. n=6 mice per group. Data are expressed as mean±SEM.

C57BL/6 mice = test: Anti-CD41 antibody-induced thrombocytopenia in C57BL/6 mice, platelet counts (Examples 1 and 3, FIG. 1); assay type: in vivo, mouse; conditions: for Platelet count versus mice treated with CD41 antibody alone: first dose 30 minutes prior to platelet-depleting antibody, 24 h
Experimental: On Day 1 of each study, mice were rendered thrombocytopenic by injection with rat anti-mouse CD41 antibody (IgG1, Clone MWReg30) by the intraperitoneal (IP) route. The platelet depleting antibody (rat anti-mouse GPIIb, also referred to as anti-integrin αIIb or anti-CD41) was administered […] treatment with Compound I on Day 1. Mice in control groups either received nothing (naïve), saline only, or an isotype-matched irrelevant control antibody (nonspecific rat anti-mouse IgG1, Clone R3-34, BD, San Jose, Calif.).
Mice received vehicle or Compound 1 at various dose levels (0, 20, 40, or 80 mg/kg, PO, 5 mL/kg) 30 minutes prior to the platelet depleting antibody, then again 8 h, 16 h, and 23 h after induction of thrombocytopenia. At 24 h after administration of the anti-CD41 platelet-depleting antibody, blood was harvested from all groups by cardiocentesis to assess the platelet counts or drug levels in the plasma. An aliquot from each sample was transferred to a plasma separator tube and the separated plasma was stored at −80° C. for analysis. Blood was placed indirectly on ice for delivery. Platelet enumeration was performed using Bayer Advia 120 Bayer Advia 120 hematology system (Bayer, Tarrytown, N.Y.) by Quality Clinical Laboratories (QCL, Mountain View, Calif.).
Systemic drug exposures were determined at sacrifice with the final dose being given on the evening of Day 1 (8 h prior to blood collection) or on the morning of Day 2 (1 h prior to blood collection). Satellite animals treated with Compound 1 and not receiving platelet-depleting antibody were added to obtain a more complete PK profile.
Significant differences between vehicle and Compound I-treated groups were determined statistically using the GraphPad Prism 4.0® software package, unless otherwise stated. In general, Prism 4.0® uses the standard calculations as detailed in D. G. Altman, Practical Statistics for Medical Research, 1991, Chapman and Hall. Platelet count data was analyzed using Kruskal Wallis Nonparametric test with Dunn's multiple group post-hoc test to compare the rank sums, unless otherwise noted.
In FIG. 1, each data point represents platelet counts for an individual mouse administered a single IP injection of 5 μg of CD41 platelet depleting antibody (n=11-12 per group). Mice were bled 24 hours post antibody administration and platelet counts were performed using Bayer Advia 120 analyzer. Mice were given vehicle or indicated doses of Compound 1. Platelet-depleting antibody was administered 30 minutes after the first Compound 1 or vehicle dose on Day 1.

COc1cc(Nc2ncc(F)c(Nc3ccc4c(n3)N(COP(=O)(O)O)C(=O)C(C)(C)O4)n2)cc(OC)c1OC [Compound 1]
Inhibition of platelet depletion compared with vehicle alone (CD-1 mice; 30.8 mg/kg group, p=0.001, Day 2): highly significant | Inhibition of platelet depletion compared with vehicle alone (CD-1 mice; 49.4 mg/kg group, p=0.008, Day 2): highly significant | Dose dependence of the effect on platelet counts (CD-1 mice; 30.8 versus 49.4 mg/kg, difference not significant (p=0.9)): did not appear to be dose-dependent | Individual Animal Platelet Count (CD-1 mice; Compound 1 30.8 mg/kg oral gavage, CD-1 mice, 30.8 mg/kg): 3.92e+11 L⁻¹ and 3.98e+11 L⁻¹ and 4.57e+11 L⁻¹ and 5.84e+11 L⁻¹ and 6.02e+11 L⁻¹ and 6.79e+11 L⁻¹ | Platelet Count Mean (CD-1 mice; Compound 1 30.8 mg/kg oral gavage): 5.19e+11 L⁻¹ | Individual Animal Platelet Count (CD-1 mice; Compound 1 49.4 mg/kg oral gavage, CD-1 mice, 49.4 mg/kg): 4.11e+11 L⁻¹ and 4.37e+11 L⁻¹ and 4.33e+11 L⁻¹ and 4.98e+11 L⁻¹ and 9.31e+11 L⁻¹ and 5.1e+11 L⁻¹ | Platelet Count Mean (CD-1 mice; Compound 1 49.4 mg/kg oral gavage): 5.37e+11 L⁻¹ | Effect on platelet depletion by anti-platelet antibody (CD-1 mice; Compound 1 treatment prior to and following CD41 platelet depleting antibody, CD-1 mice, Day 2): reduced depletion of platelets; also recorded: inhibited the reduction in platelet count | Platelet count versus the 80 mg/kg group (C57BL/6 mice; 20 mg/kg PO with platelet depleting antibody, p<0.01): significantly lower | Platelet count versus mice treated with CD41 antibody alone (C57BL/6 mice; 40 mg/kg PO, p<0.05): significantly higher platelet count | Platelet count versus mice treated with CD41 antibody alone (C57BL/6 mice; 80 mg/kg PO, p<0.001): significantly higher platelet count | Dose dependence of inhibition of platelet depletion (C57BL/6 mice; 20, 40, 80 mg/kg PO, C57BL/6 mice): dose-dependent inhibition of platelet depletion
